Reference: PubChem BioAssay AID272 (DTP/NCI, 2004)
Several values for one entry are separate records, joined by “and”; a condition that tells them apart may be missing. Equal entries are not always repeated. Results filed as inconclusive are left out.

Tested on: Lewis lung carcinoma i.m., BDF1 mice, T/C %
Experiment: NCI In Vivo Anticancer Drug Screen. Data for tumor model Lewis Lung Carcinoma (intramuscular) in B6D2F1 (BDF1) mice
In short: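 Transplantable tumour model; readout survival or tumour size; value = treated (T) / vehicle control (C).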

SMILES: CC1(C)N=C(N)N=C(N)N1c1ccc(CCCCc2ccc(Cl)cc2Cl)cc1
- T/C (endpoint: mean tumor weight, dose: 1.25 mg/kg/injection, schedule: Q01DX011 (ip), vehicle: saline, higher = larger tumour): 65 % of control
- T/C (endpoint: mean tumor weight, dose: 2.5 mg/kg/injection, schedule: Q01DX011 (ip), vehicle: saline, higher = larger tumour): 71 % of control
- T/C (endpoint: mean tumor weight, dose: 5.0 mg/kg/injection, schedule: Q01DX011 (ip), vehicle: saline, higher = larger tumour): 31 % of control
- T/C (endpoint: mean tumor weight, dose: 10.0 mg/kg/injection, schedule: Q01DX011 (ip), vehicle: saline, higher = larger tumour): 65 % of control
- T/C (endpoint: median survival time, dose: 1.25 mg/kg/injection, schedule: Q01DX011 (ip), vehicle: saline, higher = longer survival): 110 % of control
- T/C (endpoint: median survival time, dose: 2.5 mg/kg/injection, schedule: Q01DX011 (ip), vehicle: saline, higher = longer survival): 93 % of control
- T/C (endpoint: median survival time, dose: 5.0 mg/kg/injection, schedule: Q01DX011 (ip), vehicle: saline, higher = longer survival): 104 % of control
- T/C (endpoint: median survival time, dose: 10.0 mg/kg/injection, schedule: Q01DX011 (ip), vehicle: saline, higher = longer survival): 91 % of control

SMILES: CCN1/C(=C/C(C)=C/c2sc3ccccc3[n+]2CC)Sc2ccccc21
- T/C (endpoint: mean tumor weight (est.), dose: 50.0 micrograms/kg/injection, schedule: Q01DX011 (ip), vehicle: saline with Tween-80, higher = larger tumour): 88 % of control
- T/C (endpoint: mean tumor weight (est.), dose: 100.0 micrograms/kg/injection, schedule: Q01DX011 (ip), vehicle: saline with Tween-80, higher = larger tumour): 74 % of control
- T/C (endpoint: median survival time, dose: 50.0 micrograms/kg/injection, schedule: Q01DX011 (ip), vehicle: saline with Tween-80, higher = longer survival): 91 % of control
- T/C (endpoint: median survival time, dose: 100.0 micrograms/kg/injection, schedule: Q01DX011 (ip), vehicle: saline with Tween-80, higher = longer survival): 87 % of control

SMILES: CSC(=S)N/N=C/c1ccccn1
- T/C (endpoint: mean tumor weight (est.), dose: 12.5 mg/kg/injection, schedule: Q01DX011 (ip), vehicle: saline with Tween-80, higher = larger tumour): 67 % of control
- T/C (endpoint: mean tumor weight (est.), dose: 25.0 mg/kg/injection, schedule: Q01DX011 (ip), vehicle: saline with Tween-80, higher = larger tumour): 92 % of control
- T/C (endpoint: mean tumor weight (est.), dose: 50.0 mg/kg/injection, schedule: Q01DX011 (ip), vehicle: saline with Tween-80, higher = larger tumour): 50 % of control

SMILES: c1ccc(-c2csc3c4ccccc4c4ccccc4[n+]23)cc1
- T/C (endpoint: mean tumor weight (est.), dose: 0.5 mg/kg/injection, schedule: Q01DX011 (ip), vehicle: saline with Tween-80, higher = larger tumour): 102 % of control
- T/C (endpoint: mean tumor weight (est.), dose: 2.0 mg/kg/injection, schedule: Q01DX011 (ip), vehicle: saline with Tween-80, higher = larger tumour): 61 % of control
- T/C (endpoint: median survival time, dose: 0.5 mg/kg/injection, schedule: Q01DX011 (ip), vehicle: saline with Tween-80, higher = longer survival): 89 % of control
- T/C (endpoint: median survival time, dose: 2.0 mg/kg/injection, schedule: Q01DX011 (ip), vehicle: saline with Tween-80, higher = longer survival): 93 % of control

SMILES: Nc1nc(Cl)nc2c1ncn2C1CC(O)C(CO)O1 (stereo not drawn)
- T/C (endpoint: median survival time, dose: 8.0 mg/kg/injection, schedule: Q01DX Z (ip), vehicle: other, higher = longer survival): 93 % of control and 95 % of control
- T/C (endpoint: median survival time, dose: 16.0 mg/kg/injection, schedule: Q01DX Z (ip), vehicle: other, higher = longer survival): 113 % of control
- T/C (endpoint: median survival time, dose: 32.0 mg/kg/injection, schedule: Q01DX Z (ip), vehicle: other, higher = longer survival): 86 % of control

SMILES: CC(=O)OC1CC(OC2C(O)CC(OC3C(O)CC(OC4CCC5(C)C(CCC6C5CCC5(C)C(C7=CC(=O)OC7)C(O)CC65O)C4)OC3C)OC2C)OC(C)C1OC1OC(CO)C(O)C(O)C1O (stereo not drawn)
- T/C (endpoint: median survival time, dose: 3.0 mg/kg/injection, schedule: Q01DX011 (ip), vehicle: saline, higher = longer survival): 106 % of control
- T/C (endpoint: median survival time, dose: 6.0 mg/kg/injection, schedule: Q01DX011 (ip), vehicle: saline, higher = longer survival): 110 % of control
- T/C (endpoint: median survival time, dose: 12.0 mg/kg/injection, schedule: Q01DX011 (ip), vehicle: saline, higher = longer survival): 102 % of control
- T/C (endpoint: median survival time, dose: 24.0 mg/kg/injection, schedule: Q01DX011 (ip), vehicle: saline, higher = longer survival): 104 % of control
- T/C (endpoint: median survival time, dose: 48.0 mg/kg/injection, schedule: Q01DX011 (ip), vehicle: saline, higher = longer survival): 102 % of control

SMILES: COC(=O)C1Cc2cncn2C(=O)N1 (stereo not drawn)
- T/C (endpoint: median survival time, dose: 4.0 mg/kg/injection, schedule: Q01DX009 (ip), vehicle: water, higher = longer survival): 113 % of control
- T/C (endpoint: median survival time, dose: 8.0 mg/kg/injection, schedule: Q01DX009 (ip), vehicle: water, higher = longer survival): 108 % of control
- T/C (endpoint: median survival time, dose: 16.0 mg/kg/injection, schedule: Q01DX009 (ip), vehicle: water, higher = longer survival): 104 % of control
- T/C (endpoint: median survival time, dose: 32.0 mg/kg/injection, schedule: Q01DX009 (ip), vehicle: water, higher = longer survival): 103 % of control
- T/C (endpoint: median survival time, dose: 64.0 mg/kg/injection, schedule: Q01DX009 (ip), vehicle: water, higher = longer survival): 98 % of control

SMILES: OCC1OC(n2cnc3c(=S)nc[nH]c32)C(O)C1O (stereo not drawn)
- T/C (endpoint: mean tumor weight (est.), dose: 1.56 mg/kg/injection, schedule: Q01DX011 (ip), vehicle: other, higher = larger tumour): 100 % of control
- T/C (endpoint: mean tumor weight (est.), dose: 3.12 mg/kg/injection, schedule: Q01DX011 (ip), vehicle: other, higher = larger tumour): 78 % of control
- T/C (endpoint: mean tumor weight (est.), dose: 25.0 mg/kg/injection, schedule: Q01DX011 (ip), vehicle: other, higher = larger tumour): 96 % of control
- T/C (endpoint: median survival time, dose: 0.78 mg/kg/injection, schedule: Q01DX011 (ip), vehicle: other, higher = longer survival): 108 % of control
- T/C (endpoint: median survival time, dose: 1.56 mg/kg/injection, schedule: Q01DX011 (ip), vehicle: other, higher = longer survival): 114 % of control and 120 % of control
- T/C (endpoint: median survival time, dose: 3.12 mg/kg/injection, schedule: Q01DX011 (ip), vehicle: other, higher = longer survival): 95 % of control
- T/C (endpoint: median survival time, dose: 6.25 mg/kg/injection, schedule: Q01DX011 (ip), vehicle: other, higher = longer survival): 110 % of control
- T/C (endpoint: median survival time, dose: 12.5 mg/kg/injection, schedule: Q01DX011 (ip), vehicle: other, higher = longer survival): 112 % of control

SMILES: O=C(CBr)OCCOc1ccccc1
- T/C (endpoint: mean tumor weight (est.), dose: 5.0 mg/kg/injection, schedule: Q01DX011 (ip), vehicle: saline with Tween-80, higher = larger tumour): 85 % of control
- T/C (endpoint: mean tumor weight (est.), dose: 10.0 mg/kg/injection, schedule: Q01DX011 (ip), vehicle: saline with Tween-80, higher = larger tumour): 93 % of control
- T/C (endpoint: mean tumor weight (est.), dose: 20.0 mg/kg/injection, schedule: Q01DX011 (ip), vehicle: saline with Tween-80, higher = larger tumour): 85 % of control
- T/C (endpoint: median survival time, dose: 5.0 mg/kg/injection, schedule: Q01DX011 (ip), vehicle: saline with Tween-80, higher = longer survival): 88 % of control
- T/C (endpoint: median survival time, dose: 10.0 mg/kg/injection, schedule: Q01DX011 (ip), vehicle: saline with Tween-80, higher = longer survival): 104 % of control
- T/C (endpoint: median survival time, dose: 20.0 mg/kg/injection, schedule: Q01DX011 (ip), vehicle: saline with Tween-80, higher = longer survival): 108 % of control

SMILES: CCC[CH2][Sn]1([CH2]CCC)[O]OC(c2ccccc2)[O]1 (stereo not drawn)
- T/C (endpoint: median survival time, dose: 0.5 mg/kg/injection, schedule: Q01DX009 (ip), vehicle: saline, higher = longer survival): 107 % of control
- T/C (endpoint: median survival time, dose: 1.0 mg/kg/injection, schedule: Q01DX009 (ip), vehicle: saline, higher = longer survival): 114 % of control
- T/C (endpoint: median survival time, dose: 2.0 mg/kg/injection, schedule: Q01DX009 (ip), vehicle: saline, higher = longer survival): 106 % of control
- T/C (endpoint: median survival time, dose: 4.0 mg/kg/injection, schedule: Q01DX009 (ip), vehicle: saline, higher = longer survival): 113 % of control

SMILES: O=C(CCl)Nc1ccc(C(=O)O)cc1
- T/C (endpoint: median survival time, dose: 3.75 mg/kg/injection, schedule: Q01DX011 (ip), vehicle: saline with Tween-80, higher = longer survival): 106 % of control
- T/C (endpoint: median survival time, dose: 7.5 mg/kg/injection, schedule: Q01DX011 (ip), vehicle: saline with Tween-80, higher = longer survival): 97 % of control
- T/C (endpoint: median survival time, dose: 15.0 mg/kg/injection, schedule: Q01DX011 (ip), vehicle: saline with Tween-80, higher = longer survival): 100 % of control
